Reference: US6673790B1, “Indolin-2-one derivatives, preparation and their use as ocytocin receptor ligands” (Sanofi-Synthelabo, priority 2002, dated 2004)

Experiments:
[1] = target: T1, cells expressing human oxytocin receptors (Homo sapiens, UniProt P30559); assay: measurement of intracellular calcium, agonist or antagonist nature; assay type: cell-based
T1 sequence (P30559 1-389): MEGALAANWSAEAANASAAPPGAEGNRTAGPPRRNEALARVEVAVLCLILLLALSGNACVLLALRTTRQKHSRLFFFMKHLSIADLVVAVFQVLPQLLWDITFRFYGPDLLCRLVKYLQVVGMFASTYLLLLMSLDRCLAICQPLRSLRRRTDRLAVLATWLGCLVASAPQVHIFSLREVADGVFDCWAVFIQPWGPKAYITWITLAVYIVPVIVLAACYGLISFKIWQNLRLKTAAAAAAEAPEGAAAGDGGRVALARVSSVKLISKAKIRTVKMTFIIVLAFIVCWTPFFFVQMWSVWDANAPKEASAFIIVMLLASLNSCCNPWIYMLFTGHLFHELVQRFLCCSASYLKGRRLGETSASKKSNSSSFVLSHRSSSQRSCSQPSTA
Procedure: The agonist or antagonist nature of the compounds is determined in vitro in a test for the measurement of intracellular calcium with respect to cells expressing human oxytocin receptors according to the general technique described in Am. J. Physiol., 268 (Heart Circ. Physiol., 37), 1995, H404-H410.

[2] = target: T2, human vasopressin V1b receptors (Homo sapiens, UniProt P47901); assay: affinity for vasopressin V1b receptors (method of Sugimoto et al.); assay type: binding; conditions: read-out: IC50 with respect to the V1b receptors
T2 sequence (P47901 1-424): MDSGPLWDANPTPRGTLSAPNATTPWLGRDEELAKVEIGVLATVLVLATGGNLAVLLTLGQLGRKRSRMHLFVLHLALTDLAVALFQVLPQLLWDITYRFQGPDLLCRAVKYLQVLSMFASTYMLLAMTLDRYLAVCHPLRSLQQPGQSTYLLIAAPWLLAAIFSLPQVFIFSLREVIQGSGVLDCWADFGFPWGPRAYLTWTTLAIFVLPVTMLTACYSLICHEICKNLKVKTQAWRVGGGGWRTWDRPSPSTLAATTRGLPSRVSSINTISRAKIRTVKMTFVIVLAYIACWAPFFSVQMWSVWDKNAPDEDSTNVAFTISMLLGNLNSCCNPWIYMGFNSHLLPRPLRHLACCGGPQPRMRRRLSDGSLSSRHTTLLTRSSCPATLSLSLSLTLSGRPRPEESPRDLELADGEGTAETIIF
Source text: (§1) The affinity of the compounds according to the invention for human vasopressin V1a receptors (method described by M. Thibonnier et al. in J. Biol. Chem., 1994, 269, 3304-3310), V1b receptors (method described by T. Sugimoto et al. in J. Biol. Chem., 1994, 269, 27088-27092) and V2 receptors (method described by M. Birnbaumer et al. in Nature (Lond.), 1992, 357, 333-335) has also been studied. The compounds studied have little or no affinity for the V1a, V1b and V2 receptors.

[3] = target: human vasopressin V2 receptors (Homo sapiens, UniProt P30518); assay: affinity for vasopressin V2 receptors (method of Birnbaumer et al.); assay type: binding; conditions: read-out: IC50 with respect to the V2 receptors
human vasopressin V2 receptors, sequence (P30518 whole entry): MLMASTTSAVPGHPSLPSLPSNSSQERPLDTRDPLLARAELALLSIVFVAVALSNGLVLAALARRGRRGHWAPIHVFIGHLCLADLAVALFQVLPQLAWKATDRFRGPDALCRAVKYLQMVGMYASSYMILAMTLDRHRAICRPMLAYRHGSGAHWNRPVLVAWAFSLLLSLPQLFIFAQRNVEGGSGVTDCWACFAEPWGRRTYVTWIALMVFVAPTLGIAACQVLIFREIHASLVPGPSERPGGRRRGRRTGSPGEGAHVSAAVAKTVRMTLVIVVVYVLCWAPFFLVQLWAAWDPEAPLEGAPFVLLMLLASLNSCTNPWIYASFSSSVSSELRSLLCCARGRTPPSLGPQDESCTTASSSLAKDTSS
Source text: as §1

[4] = target: T3, human uterine oxytocin receptors (Homo sapiens, UniProt P30559); assay: in vitro binding test: displacement of a radioiodinated oxytocin analogue in a membrane preparation
T3 construct: host or cells: membrane preparation
T3 sequence (P30559 1-389): T1 sequence (P30559 1-389)
Procedure: The compounds according to the invention have formed the subject of biochemical and pharmacological studies. The affinity of the compounds according to the invention for oxytocin receptors was determined in an in vitro binding test using the method described by J. Elands et al. in Eur. Pharmacol., 1987, 147, 192-207. This method consists in studying in vitro the displacement of a radioiodinated oxytocin analogue at the oxytocin receptors in a membrane preparation of human uterine oxytocin receptors. The IC50 values (concentration which inhibits 50% of the binding of the radioiodinated oxytocin analogue to its receptors) are low and vary from 10^−10 to 10^−6 M in the latter test.

[5] = target: human vasopressin V1a receptors (Homo sapiens, UniProt P37288); assay: affinity for vasopressin V1a receptors (method of Thibonnier et al.); assay type: binding; conditions: read-out: IC50 with respect to the V1a receptors
human vasopressin V1a receptors, sequence (P37288 whole entry): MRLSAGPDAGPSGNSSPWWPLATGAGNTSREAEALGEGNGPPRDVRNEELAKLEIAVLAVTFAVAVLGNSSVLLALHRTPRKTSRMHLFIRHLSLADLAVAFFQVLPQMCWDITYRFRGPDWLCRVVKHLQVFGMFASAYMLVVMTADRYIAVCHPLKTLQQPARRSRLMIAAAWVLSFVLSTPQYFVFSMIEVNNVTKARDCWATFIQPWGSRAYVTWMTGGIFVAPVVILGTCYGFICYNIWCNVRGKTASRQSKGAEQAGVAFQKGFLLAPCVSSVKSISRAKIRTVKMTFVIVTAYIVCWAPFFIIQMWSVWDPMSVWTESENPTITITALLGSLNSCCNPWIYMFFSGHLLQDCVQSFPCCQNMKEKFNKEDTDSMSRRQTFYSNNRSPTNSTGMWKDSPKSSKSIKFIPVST
Source text: as §1

Structure (SMILES)	melting point	also measured
COc1ccc(CN2C(=O)C(C)(c3cc(C(=O)NC4CCCCC4)ccc3Cl)c3cc(Cl)ccc32)c(OC)c1 (stereo not shown)	129.8 °C	–
COCC1CCCN1C(=O)c1ccc(Cl)c(C2(C)C(=O)N(Cc3ccc(OC)cc3OC)c3ccc(Cl)cc32)c1 (stereo not shown)	98 °C	–
CCN(C(=O)c1ccc(Cl)c(C2(C)C(=O)N(Cc3ccc(OC)cc3OC)c3ccc(Cl)cc32)c1)C(C)C (stereo not shown)	102.8 °C	–
CCNC(=O)c1ccc(Cl)c(C2(C)C(=O)N(Cc3ccc(OC)cc3OC)c3ccc(Cl)cc32)c1 (stereo not shown) (hydrate or solvate)	248 °C	–
CCN(CCc1ccccc1)C(=O)c1ccc(Cl)c(C2(C)C(=O)N(Cc3ccc(OC)cc3OC)c3ccc(Cl)cc32)c1 (stereo not shown)	111.7 °C	–
COc1ccc(CN2C(=O)C(C)(c3ccccc3Cl)c3cc(Cl)ccc32)c(OC)c1 (single isomer, unassigned) [dextrorotatory enantiomer of Example 1, 5-Chloro-3-(2-chlorophenyl)-1-(2,4-dimethoxybenzyl)-3-methylindolin-2-one]	–	agonist or antagonist nature [1]: antagonist; IC50 ([1]; read-out: IC50 as antagonist): 3.2 ± 1.9 nM
COc1ccc(CN2C(=O)C(C)(c3ccccc3Cl)c3cc(Cl)ccc32)c(OC)c1 (racemic) [Example 1, 5-Chloro-3-(2-chlorophenyl)-1-(2,4-dimethoxybenzyl)-3-methylindolin-2-one]	–	IC50 [2]: > 1000 nM; IC50 [3]: > 1000 nM; IC50 [4]: < 50 nM; IC50 [5]: > 1000 nM

Second part, led by results:

melting point	Structure (SMILES)	also measured
191 °C	COCC(=O)Nc1ccc(Cl)c(C2(C)C(=O)N(Cc3ccc(OC)cc3OC)c3ccc(Cl)cc32)c1 (stereo not shown)	–
184 °C	COc1ccc(CN2C(=O)C(C)(c3cc(C(=O)N(C)C)ccc3Cl)c3cc(Cl)ccc32)c(OC)c1 (stereo not shown) (hydrate or solvate)	–
114 °C	COCCOCc1ccc(Cl)c(C2(C)C(=O)N(Cc3ccc(OC)cc3OC)c3ccc(Cl)cc32)c1 (stereo not shown)	–
86.3 °C	CCN(CCOC)C(=O)c1ccc(Cl)c(C2(C)C(=O)N(Cc3ccc(OC)cc3OC)c3ccc(Cl)cc32)c1 (stereo not shown)	–
73 °C	COc1ccc(CN2C(=O)C(C)(c3cc(N(C)S(=O)(=O)c4ccccc4)ccc3Cl)c3cc(Cl)ccc32)c(OC)c1 (stereo not shown) (hydrate or solvate)	–
145 °C	COc1ccc(CN2C(=O)C(C)(c3cc(CN4CCOCC4)ccc3Cl)c3cc(Cl)ccc32)c(OC)c1 (stereo not shown)	–
166 °C	CCN(C)C(=O)c1ccc(Cl)c(C2(C)C(=O)N(Cc3ccc(OC)cc3OC)c3ccc(Cl)cc32)c1 (stereo not shown)	–
116 °C	COC(=O)C1CCCCN1C(=O)c1ccc(Cl)c(C2(C)C(=O)N(Cc3ccc(OC)cc3OC)c3ccc(Cl)cc32)c1 (stereo not shown)	–
